# Assay results: patent US20260217717A1, “CDK2 INHIBITORS” (BLUEPRINT MEDICINES CORPORATION, priority 2023, published 2026)
# What was measured:
# CDK1/Cyclin B1 = biological target: T1, CDK1/Cyclin B1 (Homo sapiens, UniProt P06493); assay: CDK1/Cyclin B1 enzymatic phosphorylation assay (Caliper mobility shift); format: biochemical; conditions: read-out: Enzyme CDK1/cyclin B1 IC50
# T1 construct: GST; purchased BPS 40454
# Experimental: (§1) Reactions proceeded until between 10% to 20% total peptides were phosphorylated at room temperature (25° C.) and were terminated with 35 mM 2,2′,2″,2′″-(ethane-1,2-diyldinitrilo)tetraacetic acid (EDTA). Product was detected using the Caliper mobility shift detection method where the phosphorylated peptide (product) and substrate were electrophoretically separated and measured. Percent activity was plotted against log concentration of compound and points to generate an apparent IC50.
# CDK2/Cyclin E = biological target: T2, CDK2/Cyclin E (Homo sapiens, UniProt P24941); assay: CDK2/Cyclin E enzymatic phosphorylation assay (Caliper mobility shift); format: biochemical; conditions: read-out: Enzyme CDK2/cyclin E IC50; note: 1.0 mM ATP or ATP Km
# T2 construct: purchased Eurofins 14-475
# Experimental: as §1
# T1 sequence (P06493 whole entry): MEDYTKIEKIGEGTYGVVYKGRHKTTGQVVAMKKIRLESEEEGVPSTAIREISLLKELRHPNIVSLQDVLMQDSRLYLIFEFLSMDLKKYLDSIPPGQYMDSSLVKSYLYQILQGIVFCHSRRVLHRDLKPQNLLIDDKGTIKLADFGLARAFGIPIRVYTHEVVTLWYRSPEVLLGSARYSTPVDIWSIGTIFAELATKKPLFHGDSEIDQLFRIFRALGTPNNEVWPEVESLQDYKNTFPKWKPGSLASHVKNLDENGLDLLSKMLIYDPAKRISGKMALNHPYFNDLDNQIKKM
# T1 sequence (P14635 whole entry partner): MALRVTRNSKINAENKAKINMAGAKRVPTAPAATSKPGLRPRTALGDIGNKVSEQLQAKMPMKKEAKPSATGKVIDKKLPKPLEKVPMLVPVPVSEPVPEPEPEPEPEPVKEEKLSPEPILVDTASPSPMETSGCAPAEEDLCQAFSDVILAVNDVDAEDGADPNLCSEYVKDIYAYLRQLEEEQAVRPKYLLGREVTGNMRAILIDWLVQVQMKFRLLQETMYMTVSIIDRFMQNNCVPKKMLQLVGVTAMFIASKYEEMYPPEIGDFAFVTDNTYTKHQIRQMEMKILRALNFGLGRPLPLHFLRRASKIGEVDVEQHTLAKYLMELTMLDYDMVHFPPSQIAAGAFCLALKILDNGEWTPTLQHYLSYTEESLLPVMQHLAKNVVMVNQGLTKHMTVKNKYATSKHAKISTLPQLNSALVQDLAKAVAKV
Structure (SMILES),IC50 (CDK1/Cyclin B1),IC50 (CDK2/Cyclin E)
"C[C@@H](c1cccnc1Cl)n1ncc2ncc(Nc3cc(C#N)[nH]n3)nc21 [Example 24, (S)-3-((1-(1-(2-chloropyridin-3-yl)ethyl)-1H-pyrazolo[3,4-b]pyrazin-6-yl)amino)-1H-pyrazole-5-carbonitrile]",3330 nM,20.3 nM
"C[C@H](C1CCOCC1)n1ncc2ncc(Nc3cc(C4COC4)[nH]n3)nc21 [Example 43, (R)-N-(5-(oxetan-3-yl)-1H-pyrazol-3-yl)-1-(1-(tetrahydro-2H-pyran-4-yl)ethyl)-1H-pyrazolo[3,4-b]pyrazin-6-amine]",1650 nM,21.4 nM
"Cc1cc(Nc2cnc3cnn(C[C@H]4CCCOC4)c3n2)n[nH]1 [Example 5, (R)-N-(5-methyl-1H-pyrazol-3-yl)-1-((tetrahydro-2H-pyran-3-yl)methyl)-1H-pyrazolo[3,4-b]pyrazin-6-amine]",5230 nM,57.6 nM
"Fc1ccc(Cn2ncc3ncc(Nc4cc(C5COC5)[nH]n4)nc32)cn1 [Example 48, 1-((6-fluoropyridin-3-yl)methyl)-N-(5-(oxetan-3-yl)-1H-pyrazol-3-yl)-1H-pyrazolo[3,4-b]pyrazin-6-amine]",1840 nM,13.1 nM
"Fc1cncc(Cn2ncc3ncc(Nc4cc(C5COC5)[nH]n4)nc32)c1 [Example 50, 1-((5-fluoropyridin-3-yl)methyl)-N-(5-(oxetan-3-yl)-1H-pyrazol-3-yl)-1H-pyrazolo[3,4-b]pyrazin-6-amine]",3060 nM,44.8 nM
"Cc1nn(CC2CCOCC2)c2nc(Nc3cc(C(C)C)[nH]n3)cnc12 [Example 6, N-(5-isopropyl-1H-pyrazol-3-yl)-3-methyl-1-((tetrahydro-2H-pyran-4-yl)methyl)-1H-pyrazolo[3,4-b]pyrazin-6-amine]",388 nM,3.7 nM
"Cc1nn(Cc2cccnc2)c2nc(Nc3cc(C(C)C)[nH]n3)cnc12 [Example 7, N-(5-isopropyl-1H-pyrazol-3-yl)-3-methyl-1-(pyridin-3-ylmethyl)-1H-pyrazolo[3,4-b]pyrazin-6-amine]",234 nM,1.3 nM
"Cc1cc(Nc2cnc3cnn([C@@H](C)C4CCOCC4)c3n2)n[nH]1 [Example 54, (S)-N-(5-methyl-1H-pyrazol-3-yl)-1-(1-(tetrahydro-2H-pyran-4-yl)ethyl)-1H-pyrazolo[3,4-b]pyrazin-6-amine]",3670 nM,26 nM
"Cc1nc2cnn(CC3CCOCC3)c2nc1Nc1cc(C(C)C)[nH]n1 [Example 17, N-(5-isopropyl-1H-pyrazol-3-yl)-5-methyl-1-((tetrahydro-2H-pyran-4-yl)methyl)-1H-pyrazolo[3,4-b]pyrazin-6-amine]",1650 nM,14.8 nM
